Measurements published in patent US9783556B2, “Kinase inhibitors” (RESPIVERT LIMITED, priority 2012, dated 2017).
Like-named read-outs stand apart in the source and are kept apart here.

Assays:
HT29 cells = assay: IL-1β-induced IL-8 release in HT29 cells; assay type: cell-based; details: Homo sapiens, HT-29, IL-1β-stimulated HT29 cells, read-out: IC50 Values for Inhibition of Cytokine Release HT29 cells IL-8
Protocol: HT29 cells, a human colon adenocarcinoma cell line, are plated in a 96 well plate (24 hrs) and pre-treated with compounds at the desired concentration for 2 hours before addition of 5 ng/mL of IL-1β (Abcam) for 24 hours. Supernatants are harvested for IL-8 quantification by Sandwich ELISA (Duo-set, R&D System). The IC50 is determined from the dose response curve.

GSK 3α = GSK 3α (Homo sapiens (Human), UniProt P49840); assay: GSK 3α enzyme inhibition (Z-LYTE FRET); assay type: biochemical; details: read-out: IC50 Values for Enzyme Inhibition GSK3α
GSK 3α, sequence (P49840 whole entry): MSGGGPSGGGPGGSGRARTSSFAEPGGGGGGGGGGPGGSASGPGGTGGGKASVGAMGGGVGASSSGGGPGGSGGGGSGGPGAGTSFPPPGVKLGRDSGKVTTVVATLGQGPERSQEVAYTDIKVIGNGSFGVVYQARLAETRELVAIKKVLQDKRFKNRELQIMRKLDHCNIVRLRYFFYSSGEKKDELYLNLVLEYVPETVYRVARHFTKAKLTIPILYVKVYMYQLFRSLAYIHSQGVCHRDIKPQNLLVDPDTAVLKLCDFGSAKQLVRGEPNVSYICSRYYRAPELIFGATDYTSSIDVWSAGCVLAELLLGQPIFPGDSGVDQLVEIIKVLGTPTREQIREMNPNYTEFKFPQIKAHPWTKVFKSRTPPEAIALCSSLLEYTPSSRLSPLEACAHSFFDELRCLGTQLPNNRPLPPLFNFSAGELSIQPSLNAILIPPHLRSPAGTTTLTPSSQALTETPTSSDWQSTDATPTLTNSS
Protocol: (§1) The enzyme inhibitory activities of compounds disclosed herein are determined by FRET using synthetic peptides labelled with both donor and acceptor fluorophores (Z-LYTE, Invitrogen Ltd., Paisley, UK).
The following two assay variants can be used for determination of GSK 3α inhibition.
The inhibitory activities of compounds of the invention against the GSK 3α enzyme isoform (Invitrogen), are evaluated by determining the level of activation/phosphorylation of the target peptide. The GSK3-α protein (500 ng/mL, 2.5 μL) is mixed with the test compound (2.5 μL at either 4 μg/mL, 0.4 μg/mL, 0.04 μg/mL, or 0.004 μg/mL) for 2 hr at RT. The FRET peptide (8 μM, 2.5 μL), which is a phosphorylation target for GSK3α, and ATP (40 μM, 2.5 μL) are then added to the enzyme/compound mixture and the resulting mixture incubated for 1 hr. Development reagent (protease, 5 μL) is added for 1 hr prior to detection in a fluorescence microplate reader (Varioskan® Flash, ThermoFisher Scientific).
(§2) In all cases, the site-specific protease cleaves non-phosphorylated peptide only and eliminates the FRET signal. Phosphorylation levels of each reaction are calculated using the ratio of coumarin emission (donor) over fluorescein emission (acceptor), for which high ratios indicate high phosphorylation and low ratios indicate low phosphorylation levels. The percentage inhibition of each reaction is calculated relative to non-inhibited control and the 50% inhibitory concentration (IC50 value) is then calculated from the concentration-response curve.
This method follows the same steps as Method 1 above, but utilises a shorter period of mixing of the test compound (105 minutes instead of 2 hours) with the GSK3-α protein.

d-U937 cells = assay: LPS-induced TNFα/IL-8 release in d-U937 cells; assay type: cell-based; details: Homo sapiens, dU937, LPS-stimulated d-U937 cells
Protocol: U937 cells, a human monocytic cell line, are differentiated to macrophage-type cells by incubation with phorbol myristate acetate (PMA; 100 ng/mL) for 48 to 72 hr. Cells are pre-incubated with final concentrations of test compound for 2 hr and are then stimulated with 0.1 μg/mL of LPS (from E. Coli: O111:B4, Sigma) for 4 hr. The supernatant is collected for determination of TNFα and IL-8 concentrations by sandwich ELISA (Duo-set, R&D systems). The inhibition of TNFα production is calculated as a percentage of that achieved by 10 μg/mL of BIRB796 at each concentration of test compound by comparison against vehicle control. The relative 50% effective concentration (REC50) is determined from the resultant concentration-response curve. The inhibition of IL-8 production is calculated at each concentration of test compound by comparison with vehicle control. The 50% inhibitory concentration (IC50) is determined from the resultant concentration-response curve.

PBMCs [1] = assay: IL-2 and IFN gamma release in CD3/CD28 stimulated PBMC cells; assay type: cell-based; details: Homo sapiens, IL-2, read-out: IC50 Values for Inhibition of Cytokine Release PBMCs IL-2
Protocol: PBMCs from healthy subjects are separated from whole blood using a density gradient (Lymphoprep, Axis-Shield Healthcare). Cells are added to a 96 well plate pre-coated with a mixture of CD3/CD38 monoclonal antibodies (0.3 μg/mL eBioscience and 3 μg/mL BD Pharmingen respectively). Compound at the desired concentration is then added to the wells and the plate left for 3 days under normal tissue culture conditions. Supernatants are harvested and IL-2 and IFN gamma release determined by Sandwich ELISA (Duo-set, R&D System). The IC50 is determined from the dose response curve.

PBMCs [2] = assay: LPS-induced TNFα/IL-8 release in PBMC cells; assay type: cell-based; details: Homo sapiens, LPS-stimulated PBMCs
Protocol: Peripheral blood mononuclear cells (PBMCs) from healthy subjects are separated from whole blood using a density gradient (Lymphoprep, Axis-Shield Healthcare). The PBMCs are seeded in 96 well plates and treated with compounds at the desired concentration for 2 hours before addition of 1 ng/mL LPS (Escherichia Coli 0111:B4 from Sigma Aldrich) for 24 hours under normal tissue culture conditions (37° C., 5% CO2). The supernatant is harvested for determination of IL-8 and TNFα concentrations by sandwich ELISA (Duo-set, R&D systems) and read on the fluorescence microplate reader (Varioskan® Flash, ThermoFisher Scientific). The concentration at 50% inhibition (IC50) of IL-8 and TNFα production is calculated from the dose response curve.

[3] = biological target: p38 MAPKα isoform (MAPK14) (Homo sapiens (Human), UniProt Q16539); assay: p38 MAPKα enzyme inhibition (Z-LYTE FRET); assay type: biochemical
p38 MAPKα isoform (MAPK14), sequence (Q16539 whole entry, canonical isoform): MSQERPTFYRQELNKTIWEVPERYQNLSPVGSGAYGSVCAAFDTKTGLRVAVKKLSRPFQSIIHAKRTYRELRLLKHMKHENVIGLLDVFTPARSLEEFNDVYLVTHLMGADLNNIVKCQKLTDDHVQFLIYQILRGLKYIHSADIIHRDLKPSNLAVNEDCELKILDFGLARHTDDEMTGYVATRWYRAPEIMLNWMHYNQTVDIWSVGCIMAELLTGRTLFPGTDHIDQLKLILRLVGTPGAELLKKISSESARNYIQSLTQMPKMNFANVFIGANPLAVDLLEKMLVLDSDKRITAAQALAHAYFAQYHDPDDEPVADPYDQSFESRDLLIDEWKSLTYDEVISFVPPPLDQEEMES
Protocol: as §1
The following two assay variants can be used for determination of p38 MAPKα inhibition.
The inhibitory activities of test compounds against the p38 MAPKα isoform (MAPK14: Invitrogen), are evaluated indirectly by determining the level of activation/phosphorylation of the down-stream molecule, MAPKAP-K2. The p38 MAPKα protein (80 ng/mL, 2.5 μL) is mixed with the test compound (2.5 μL of either 4 μg/mL, 0.4 μg/mL, 0.04 μg/mL or 0.004 μg/mL) for 2 hr at RT. […] The mixture is incubated for 1 hr at RT. Development reagent (protease, 5 μL) is added for 1 hr prior to detection in a fluorescence microplate reader (Varioskan® Flash, ThermoFisher Scientific).
This method follows the same steps as Method 1 above, but utilises a higher concentration of the p38 MAPKα protein (2.5 μL of 200 ng/mL protein instead of 2.5 μL of 80 ng/mL protein) for mixing with the test compound.
as §2

c-Src = c-Src (Homo sapiens (Human), UniProt P12931); assay: c-Src enzyme inhibition (Z-LYTE FRET); assay type: biochemical
c-Src, sequence (P12931 whole entry, looked up): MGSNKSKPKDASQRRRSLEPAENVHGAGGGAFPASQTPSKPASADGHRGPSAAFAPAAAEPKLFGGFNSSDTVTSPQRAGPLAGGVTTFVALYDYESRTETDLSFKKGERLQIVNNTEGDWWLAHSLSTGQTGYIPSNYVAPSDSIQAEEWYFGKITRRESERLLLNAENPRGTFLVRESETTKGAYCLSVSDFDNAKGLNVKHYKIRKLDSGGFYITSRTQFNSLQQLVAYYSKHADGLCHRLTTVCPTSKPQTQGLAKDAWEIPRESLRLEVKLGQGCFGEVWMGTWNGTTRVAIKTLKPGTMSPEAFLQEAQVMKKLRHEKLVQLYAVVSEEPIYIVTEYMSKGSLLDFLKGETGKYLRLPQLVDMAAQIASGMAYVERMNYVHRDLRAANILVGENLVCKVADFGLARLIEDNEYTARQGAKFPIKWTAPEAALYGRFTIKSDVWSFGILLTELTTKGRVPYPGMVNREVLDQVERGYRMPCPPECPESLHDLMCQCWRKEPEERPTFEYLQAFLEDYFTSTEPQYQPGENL
Protocol: as §1
(§3) The inhibitory activities of compounds of the invention against c-Src and Syk enzymes (Invitrogen), are evaluated in a similar fashion to that described hereinabove. The relevant enzyme (3000 ng/mL or 2000 ng/mL respectively, 2.5 μL) is incubated with the test compound (either 4 μg/mL, 0.4 μg/mL, 0.04 μg/mL, or 0.004 μg/mL, 2.5 μL each) for 2 hr at RT. The FRET peptides (8 μM, 2.5 μL), and appropriate ATP solutions (2.5 μL, 800 μM for c-Src, and 60 μM ATP for Syk) are then added to the enzymes/compound mixtures and incubated for 1 hr. Development reagent (protease, 5 μL) is added for 1 hr prior to detection in a fluorescence microplate reader (Varioskan® Flash, ThermoFisher Scientific).
as §2

Syk = Syk (Homo sapiens (Human), UniProt P43405); assay: Syk enzyme inhibition (Z-LYTE FRET); assay type: biochemical
Protocol: as §1, §3, §2

[4] = IL-8, read-out: IC50 Values for Inhibition of Cytokine Release dU937 cells IL-8
[5] = TNFα, method describes REC50 relative to BIRB796, read-out: IC50 Values for Inhibition of Cytokine Release dU937 cells TNFα
[6] = IL-8, read-out: IC50 Values for Inhibition of Cytokine Release PBMCs IL-8
[7] = TNFα, read-out: IC50 Values for Inhibition of Cytokine Release PBMCs TNFα

Row | SMILES | IC50 (HT29 cells) [nM] | IC50 (GSK 3α) [nM] | IC50 (d-U937 cells; [4]) [nM] | IC50 (d-U937 cells; [5]) [nM] | IC50 (PBMCs [1]) [nM] | IC50 (PBMCs [2]; [6]) [nM] | IC50 (PBMCs [2]; [7]) [nM] | IC50 [3] [nM] | IC50 (c-Src) [nM] | IC50 (Syk) [nM]
1 | Cc1ccc(-n2nc([Si](C)(C)C)cc2NC(=O)Nc2ccc(Oc3ccnc(Nc4ccccc4)n3)c3ccccc23)cc1 [Example 1, 1-(4-((2-(Phenylamino)pyrimidin-4-yl)oxy)naphthalen-1-yl)-3-(1-(p-tolyl)-3-(trimethylsilyl)-1H-pyrazol-5-yl)urea] | 15.6 | > 10000 | 4.6 | 2.5 | 274 | 14.2 | 2.8 | 152 | 77 | > 1000
2 | COc1ccc(-n2nc([Si](C)(C)C)cc2NC(=O)Nc2ccc(Oc3ccnc(Nc4ccccc4)n3)c3ccccc23)cn1 [Example 2, 1-(1-(6-Methoxypyridin-3-yl)-3-(trimethylsilyl)-1H-pyrazol-5-yl)-3-(4-((2-(phenylamino)pyrimidin-4-yl)oxy)naphthalen-1-yl)urea] | 12.1 | 3240 | 2.6 | 1.8 | 128 | 8.4 | 2.7 | 329 | 93 | > 1000
3 | C[Si](C)(C)c1cc(NC(=O)Nc2ccc(Oc3ccnc(Nc4ccccc4)n3)c3ccccc23)n(-c2ccc(OCCN3CCOCC3)cc2)n1 [Example 3, 1-(1-(4-(2-Morpholinoethoxy)phenyl)-3-(trimethylsilyl)-1H-pyrazol-5-yl)-3-(4-((2-(phenylamino)pyrimidin-4-yl)oxy)naphthalen-1-yl)urea] | 13.4 | 4990 | 18 | 2 | 76.8 | 9.4 |  | 347 | 227 | > 1000
4 | Cc1ccc(-n2nc([Si](C)(C)C)cc2NC(=O)Nc2ccc(Oc3ccnc(Nc4cccc(OCCN5CCOCC5)c4)n3)c3ccccc23)cc1 [Example 6, 1-(4-((2-((3-(2-Morpholinoethoxy)phenyl)amino)pyrimidin-4-yl)oxy)naphthalen-1-yl)-3-(1-(p-tolyl)-3-(trimethylsilyl)-1H-pyrazol-5-yl)urea] | 8.7 | > 2000 | 1.8 | 1.5 | 15.7 | 4.8 | 0.7 | 314 | 10 | 7
5 | Cc1ccc(-n2nc([Si](C)(C)C)cc2NC(=O)Nc2ccc(Oc3ccnc(Nc4ccc5[nH]ncc5c4)n3)c3ccccc23)cc1 [Example 7, 1-[4-[2-(1H-Indazol-5-ylamino)pyrimidin-4-yl]oxy-1-naphthyl]-3-[2-(p-tolyl)-5-trimethylsilyl-pyrazol-3-yl]urea] | 16.6 | > 10000 | 8.6 | 1.9 | 47.5 | 12 | 3.3 | 380 | 45 | 673
6 | Cc1ccc(-n2nc([Si](C)(C)C)cc2NC(=O)Nc2ccc(Oc3ccnc(Nc4cc(C)c5[nH]ncc5c4)n3)c3ccccc23)cc1 [Example 9, 1-(4-((2-((7-Methyl-1H-indazol-5-yl)amino)pyrimidin-4-yl)oxy)naphthalen-1-yl)-3-(1-(p-tolyl)-3-(trimethylsilyl)-1H-pyrazol-5-yl)urea] | 4.8 | > 10000 | 2.6 | 1.2 | 41.2 | 3.4 |  | 358 | 135 | 520
7 | Cc1ccc(-n2nc([Si](C)(C)C)cc2NC(=O)Nc2ccc(Oc3ccnc(Nc4ccc5c(c4)NC(=O)C5)n3)c3ccccc23)cc1 [Example 10, 1-(4-((2-((2-Oxoindolin-6-yl)amino)pyrimidin-4-yl)oxy)naphthalen-1-yl)-3-(1-(p-tolyl)-3-(trimethylsilyl)-1H-pyrazol-5-yl)urea] | 5 | > 10000 | 2 | 1.6 | 196 | 3.5 |  | 541 | 19 | 990
8 | COc1cc(Nc2nccc(Oc3ccc(NC(=O)Nc4cc([Si](C)(C)C)nn4-c4ccc(C)cc4)c4ccccc34)n2)cc(OCCN2CCOCC2)c1 [Example 13, 1-(4-((2-((3-Methoxy-5-(2-morpholinoethoxy)phenyl)amino)pyrimidin-4-yl)oxy)naphthalen-1-yl)-3-(1-(p-tolyl)-3-(trimethylsilyl)-1H-pyrazol-5-yl)urea] | 4.3 | 5640 | 1.4 | 1.1 | 3.9 | 2.3 |  | > 1000 | 170 | 106
